In patent US20060093561A1, “Method of treating microorganisms in the oral cavity” (priority 2004, published 2006):

Experiments:
[1] = system: P. gingivalis; experiment: Photodynamic therapy assay, serum and blood bacteria suspensions; type: cell-based, Porphyromonas gingivalis 381
Protocol: (§1) An overnight bacterial culture was removed from the anaerobic chamber and centrifuged at 2400×g for 5 minutes in an IEC21000R centrifuge (Fisher). The supernatant was discarded and the pellet washed and resuspended three times in PBS. The bacterial suspension was then adjusted to a working concentration of approximately 10^10 colony forming units (cfu)/ml by measurement of optical density at 600 nm (Pharmacia LKB Ultraspec III). The suspension was returned to the anaerobic chamber and aliquoted in pre-reduced 1.5 ml microfuge tubes (Fisher) in order to decrease oxygen exposure of the anaerobic suspension.
(§2) Prior to light irradiation, 75 μl of calibrated bacterial suspension (7.5×10^8 cfu) was mixed with 75 μl of TBO stock solution (100 μg/ml) in a sterile tube, for a final mixture concentration of 5×10^9 cfu/ml and 50 μg/ml TBO. The mixture was then incubated at room temperature for 5 min. in the dark. TBO negative controls were incubated with an equal volume of sterile PBS instead of TBO. The mixture was then added to a sterilized perfusion chamber (Cedarlane Laboratories) mounted on a glass coverslip. The perfusion chamber was 500 μm thick, and so attenuation of the treatment light by the TBO was only 30% at 50 μg/ml. For most treatments at a concentration of 12.5 μg/ml TBO, the attenuation of treatment light was only 9%. The inoculated perfusion chamber was irradiated under the desired conditions with a light beam whose diameter covered the perfusion chamber's transparent surface. […] Colony counts determined the number of bacterial survivors and they were expressed as cfu/ml. […]

[2] = system: B. forsythus; experiment: Photodynamic therapy assay after serum washout of bacteria; type: cell-based, Bacteroides forsythus 43037; details: xenon lamp 10 J/cm^2, 100 mW/cm^2, 12.5 μg/ml TBO
From the text: (§3) The following bacteria were used in these experiments and cultivated in an anaerobic chamber (available commercially from Coy Manufacturing Co.; AnnArbor, Mich., USA): Porphyromonas gingivalis 381; Prevotella intermedia 25611; Actinobacillus actinomycetemcomitans UT32; Fusobacterium nucleatum 1213; Bacteroides forsythus 43037. P. gingivalis and P. intermedia strains were subcultured weekly in Todd Hewitt Broth (available commercially from Fisher Scientific; Nepean, Ontario, Canada; hereinafter referred to as Fisher) supplemented with 5 μg/ml hemin (Sigma-Aldrich Co.; Oakville, Ontario, Canada; hereinafter referred to as Sigma) and 1 μg/ml menadione (Sigma). A. actinomycetemcomitans was subcultured in Tryptic Soy Broth (Fisher) containing 6 g/l yeast extract (Fisher) and 8 ml of 1.5% sodium bicarbonate, filter sterilized (Fisher). F. nucleatum was subcultured in Todd Hewitt Broth. […]
(§4) Prior to light irradiation, 75 μl of calibrated bacterial suspension (7.5×10^8 cfu) was mixed with 75 μl of TBO stock solution (100 μg/ml) in a sterile tube, for a final mixture concentration of 5×10^9 cfu/ml and 50 μg/ml TBO. […] Colony counts determined the number of bacterial survivors and they were expressed as cfu/ml. […]

[3] = system: F. nucleatum; experiment: as above; type: cell-based, Fusobacterium nucleatum 1213; details: xenon lamp 10 J/cm^2, 100 mW/cm^2, 12.5 μg/ml TBO
From the text: as §3, §4

[4] = system: P. gingivalis; experiment: as above; type: cell-based, Porphyromonas gingivalis 381
Protocol: as §1
as §2, with “μg/ml.” for “μg/ml. For most treatments at a concentration of 12.5 μg/ml TBO, the attenuation of treatment light was only 9%. The inoculated perfusion chamber was irradiated under the desired conditions with a light beam whose diameter covered the perfusion chamber's transparent surface.”

[5] = Storage stability of TBO stock solution; type: physicochemical; details: 1 mg/ml in PBS, filter sterilized, dark tubes at −20° C., up to 3 months
Protocol: (§5) The photosensitizer TBO (Sigma) was dissolved in Dulbecco's Phosphate Buffered Saline (PBS) (Sigma) to a concentration of 1 mg/ml under ambient light. […] The stock was diluted to appropriate concentrations with PBS as required.

[6] = system: A. actinomycetemcomitans; experiment: Photodynamic therapy assay after serum washout of bacteria; type: cell-based, Actinobacillus actinomycetemcomitans UT32; details: xenon lamp 10 J/cm^2, 100 mW/cm^2, 12.5 μg/ml TBO
From the text: as §3, §4

[7] = system: P. gingivalis; experiment: Photodynamic therapy assay, bacteria suspended in PBS; type: cell-based, Porphyromonas gingivalis 381; details: for killing of P. gingivalis: light dose 2.2 J/cm^2, 50 μg/ml TBO, 5 min incubation
From the text: The following bacteria were used in these experiments and cultivated in an anaerobic chamber (available commercially from Coy Manufacturing Co.; AnnArbor, Mich., USA): Porphyromonas gingivalis 381; Prevotella intermedia 25611; Actinobacillus actinomycetemcomitans UT32; Fusobacterium nucleatum 1213; Bacteroides forsythus 43037. P. gingivalis and P. intermedia strains were subcultured weekly in Todd Hewitt Broth (available commercially from Fisher Scientific; Nepean, Ontario, Canada; hereinafter referred to as Fisher) supplemented with 5 μg/ml hemin (Sigma-Aldrich Co.; Oakville, Ontario, Canada; hereinafter referred to as Sigma) and 1 μg/ml menadione (Sigma). A. actinomycetemcomitans was subcultured in Tryptic Soy Broth (Fisher) containing 6 g/l yeast extract (Fisher) and 8 ml of 1.5% sodium bicarbonate, filter sterilized (Fisher). F. nucleatum was subcultured in Todd Hewitt Broth. B. forsythus was subcultured in Brain Heart Infusion Broth (95 ml) (Fisher) supplemented with 0.001 g N-acetylmuramic acid (Sigma) in 5 ml Horse Serum (Cedarlane Laboratories; Hornby, Ontario, Canada), filter sterilized. Prior to experiments, a fresh broth tube was inoculated and allowed to grow overnight at 37° C. in the anaerobic chamber.
A 100 Watt red-filtered xenon fibre optic light source having a bandwidth of 620-640 nm (available commercially from EXFO, Inc.; Mississauga, Ontario, Canada) was used in these experiments. […] Light dose for each source was calculated by the cross product of the TBO absorption spectrum and light spectrum.
as §5, §1
Prior to light irradiation, 75 μl of calibrated bacterial suspension (7.5×10^8 cfu) was mixed with 75 μl of TBO stock solution (100 μg/ml) in a sterile tube, for a final mixture concentration of 5×10^9 cfu/ml and 50 μg/ml TBO. The mixture was then incubated at room temperature for 5 min. in the dark. TBO negative controls were incubated with an equal volume of sterile PBS instead of TBO. The mixture was then added to a sterilized perfusion chamber (Cedarlane Laboratories) mounted on a glass coverslip. The perfusion chamber was 500 μm thick, and so attenuation of the treatment light by the TBO was only 30% at 50 μg/ml. For most treatments at a concentration of 12.5 μg/ml TBO, the attenuation of treatment light was only 9%. The inoculated perfusion chamber was irradiated under the desired conditions with a light beam whose diameter covered the perfusion chamber's transparent surface. Upon completion, the mixture was removed and serially diluted in PBS and each dilution was plated on the following media: for P. gingivalis, P. intermedia, and F. nucleatum, Trypticase Soy Agar (Fisher) supplemented with 5 g/l yeast extract, 5 μg/ml hemin, 1 μg/ml menadione, 50 ml/l defibrinated sheep's blood (Oxoid, Inc.; Nepean, Ontario, Canada); for B. forsythus, Trypticase Soy Agar supplemented with 4 g/L yeast extract, 4 g/L trypticase peptone (Fisher), N-acetymuramic acid (10 mg/ml stock filter sterilized into medium to 10 mg/l); and for A. actinomycetemcomitans, Tryptic Soy Agar. […]

[8] = system: P. intermedia; experiment: Photodynamic therapy assay after serum washout of bacteria; type: cell-based, Prevotella intermedia 25611; details: xenon lamp 10 J/cm^2, 100 mW/cm^2, 12.5 μg/ml TBO
From the text: as §3, §4

[9] = xenon lamp 6.3 J/cm^2, 100 mW/cm^2, 12.5 μg/ml TBO

storage stability of stock solution [5]: without a loss in potency
SMILES: Cc1cc2nc3ccc(N(C)C)cc3[s+]c2cc1N [TBO, toluidine blue O]
P. gingivalis killing with serum ([1]; FBS 50% (v/v), xenon lamp 6.3 J/cm^2, 100 mW/cm^2, 12.5 μg/ml TBO): 3.05±1.02 logs
maximum blood resuspended P. gingivalis kill ([1]; defibrinated sheep's blood, xenon lamp 20 J/cm^2, 100 mW/cm^2, 12.5 μg/ml TBO): 2.85±0.33 logs
kill of blood suspended P. gingivalis compared to TBO absent controls at higher light doses ([1]; defibrinated sheep's blood, xenon lamp 100 mW/cm^2, 12.5 μg/ml TBO, light doses above 10 J/cm^2): ~3 log
B. forsythus killing [2]: 3.92±0.68 logs
F. nucleatum kill [3]: 4.7±0.72 logs
P. gingivalis killing after serum washout [4, 9]: 4.71±1.07 logs
P. gingivalis kill after serum washout ([4]; xenon lamp 10 J/cm^2, 100 mW/cm^2, 12.5 μg/ml TBO): 5.48±0.68 logs
A. actinomycetemcomitans kill [6]: 5.51±1.34 logs
increase in bacterial killing, xenon lamp versus He—Ne laser ([7]; 2.2 J/cm^2, 50 μg/ml TBO): ~10 fold
reduction in viable bacteria ([7]; He—Ne laser, 2.2 J/cm^2, 50 μg/ml TBO): approximately 270 ×
killing of P. gingivalis ([7]; He—Ne laser): 2.43±0.39 logs
killing of P. gingivalis ([7]; red-filtered xenon lamp): 3.34±0.24 logs
P. gingivalis kill in the absence of serum [7, 9]: 6.02±0.76 logs
kill of P. gingivalis at each TBO concentration tested ([7]; xenon lamp 6.3 J/cm^2 and 100 mW/cm^2, each drug concentration incl. 3.125, 6.25 and 12.5 μg/ml): 5 logs
kill of P. gingivalis ([7]; xenon lamp 10 mW/cm^2, total light dose 2.2 J/cm^2, 50 μg/ml TBO): 2.12±0.36 logs
kill of P. gingivalis ([7]; xenon lamp 25 mW/cm^2, total light dose 2.2 J/cm^2, 50 μg/ml TBO): 3.34±0.41 logs
bacterial kill of P. gingivalis ([7]; xenon lamp 100 mW/cm^2, light dose 6.3 J/cm^2, 50 μg/ml TBO): 5 logs
kill of P. gingivalis ([7]; xenon lamp 100 mW/cm^2, total light dose 2.2 J/cm^2, 50 μg/ml TBO): 3.41±0.58 logs
P. intermedia kill [8]: 5.33±0.62 logs
